Earlier results on eight compounds are cited in patent US20160174564A1, “BIOCIDE-FREE PREWETTED SPONGE CLOTH” (Kalle GmbH, priority 2014, published 2016).

The conditions of this series: saturated solutions of different salts; 20° C.
Turning to `[Cl-].[K+]` [KCl], the aw value is given as 0.843.

For the compound `[Cl-].[Cl-].[Sr+2]` [SrCl2], the aw value is reported as 0.708. Consider `[Br-].[Na+]` [NaBr], for which the aw value was 0.577. As to `[Cl-].[Cl-].[Mg+2]` [MgCl2], the aw value is recorded as 0.327.

Take `[Cl-].[Na+]` [NaCl]: the aw value was 0.753. As to `O=[N+]([O-])[O-].O=[N+]([O-])[O-].[Mg+2]` [Mg(NO3)2], the aw value was 0.529.

As for `O=C([O-])[O-].[K+].[K+]` [Sample K2CO3, K2CO3], the aw value is recorded as 0.438.

In the case of `[Cl-].[Li+]` [LiCl], the aw value was 0.112.
